Measured values from patent publication US20260137671A1, “PDK4 as a Cell-Aging Intervention Target and Its Use in Chemotherapy and Anticancer” (Shanghai Institute of Nutrition and Health, Chinese Academy …, priority 2022, published 2026).

System: mice with natural senescence
Assay: PDK4-IN intervention in naturally aged mice: tissue senescence, physical function, serum markers
Format: in vivo, C57BL/6J mice
Experimental: FIG. 83. Schematic design of 20-month-old C57BL/6J mice undergoing either placebo or PDK4-IN intervention.
All testing began on day 5 after the last placebo or drug treatment. Maximum walking speed was assessed using the accelerated RotaRod System (TSE System, Chesterfiled, MO). The mice were trained on the RotaRod for 3 days at speeds of 4, 6 and 8 r.p.m, lasted for 200 seconds on the 1st, 2nd and 3rd days. On the test day, the mice were placed on the RotaRod, and the test was performed starting at a speed of 4 r.p.m. The rotation speed was accelerated from 4 to 40 r.p.m at intervals of 5 minutes. When the mice fell off the RotaRod, the speed was recorded. The final results were averaged from 3 or 4 trials and normalized to baseline speed. The mice that had been trained within the previous two months were no longer trained.
Forelimb grip strength (N) was measured using a Grip Strength Meter (Columbus Instruments, Columbus, OH), and the results were averaged from more than 10 trials. For the hanging endurance test, the mice were placed on a 2 mm thick metal wire, while the later was 35 cm above a mat. The mice were only allowed to grasp the wire with their forelimbs, and the hang time was normalized to body weight and expressed as hang duration (sec)×body weight (g). The results were the average of 2 to 3 trials per mouse. Their daily activity and food intake were monitored for 24 h (12 hours of light and 12 hours of dark) by a Comprehensive Laboratory Animal Monitoring System (CLAMS). The CLAMS system was equipped with an Oxymax Open Circuit Calorimeter System (Columbus Instruments). For treadmill performance, the mice were acclimatized to run on an electric running machine (Columbus Instruments) at a 5° incline, for 3 days of training, lasted for 5 minutes each day, started at a speed of 5 m/min for 2 minutes, then accelerated to 7 m/min for 2 minutes, then 9 m/min for 1 minute. On the day of the test, the mice ran on the treadmill at an initial speed of 5 m/min for 2 min, and then the speed increased by 2 m/min every 2 min until the mice were exhausted. Fatigue was defined as the inability of mice to return to the treadmill despite mild electrical and mechanical stimulation. The distance was recorded after the test, and the total work (KJ) was calculated with the following formula: mass (kg)×g (9.8 m/s2)×distance (m)×sin (5°).
With the increasing global senescent trend in recent years, drugs that can effectively alleviate the senescent process have become a common interest among scientists and pharmaceutical companies worldwide. The inventors queried whether manipulation of PDK4 activities can control various senescence-associated phenotypes. Therefore, the inventors chose to treat normal 20-month-old wild-type mice with PDK4-IN (PDK4-IN 10 mg/kg via intraperitoneal injection once every 2 weeks) for 4 months, after which physical function or physical ability was experimentally determined in mice with natural senescence (FIG. 83).

[1] = 20-month-old mice, PDK4-IN 10 mg/kg i.p. once every 2 weeks for 4 months

O=C1c2ccccc2C(=O)c2c1cccc2-c1cnn(C2CCNCC2)c1 [PDK4-IN]
SA-β-gal positivity in liver, lung, prostate and myocardial tissues of aged animals [1]: partially reversed | age-dependent expansion of alveoli [1]: effectively controlled | grip strength [1]: significantly improved | motor skills [1]: significantly improved | serum lactate levels (aged animals receiving PDK4-IN treatment): significant reduction | age-related elevation of serum alanine aminotransferase (ALT) (aged mice treated with PDK4-IN): significantly avoided these changes | age-related elevation of serum aspartate aminotransferase (AST) (aged mice treated with PDK4-IN): significantly avoided these changes | age-related elevation of serum lactate dehydrogenase (LDH) (aged mice treated with PDK4-IN): significantly avoided these changes | body weight (aged mice treated with PDK4-IN): essentially unaffected | food intake (aged mice treated with PDK4-IN): essentially unaffected
